Results from publication PMC6862323, “Substitution of Arginine 120 in Human D-Amino Acid Oxidase Favors FAD-Binding and Nuclear Mistargeting” (Frontiers in Molecular Biosciences, 2019).

Key:
[1] = parameters: method as in Molla et al. (2006) and Caldinelli et al. (2009); settings: 28 mM D-alanine, pH 8.5, 25°C; ref Molla et al. (2006) and Caldinelli et al. (2009); cited from earlier work
[2] = test system: U87 glioblastoma cells; assay: Confocal analysis of cellular distribution of EYFP-hDAAO variants in transiently transfected U87 cells; format: cell-based, human
Description: Human U87 glioblastoma cells (ATCC) were cultured in DMEM supplemented with 10% fetal bovine serum, 1 mM sodium pyruvate, 2 mM L-glutamine, 1% non-essential amino acids, 1% penicillin/streptomycin, and 1% amphotericin B (Euroclone), at 37°C in 5% CO2. The cells were transfected either with the pEYFP-hDAAO-C3 construct (for the expression of the wild-type enzyme downstream of the enhanced yellow fluorescent protein, EYFP) (Sacchi et al., [2008], [2011]), the pEYFP-hDAAO(R120L)-C3, or the pEYFP-hDAAO(R120E)-C3 expression vectors. The latter constructs were obtained by mutagenesis using the QuikChange Lightning Site-Directed Mutagenesis Kit (Agilent), and the following primers: 5′-[…]-3′ and 5′-[…]-3′ for the R120E substitution, and 5-[…]-3′ and 5′-[…]-3′ for the R120L substitution.
For transient transfection, 2 ×10^4 cells were seeded into eight-well chamber slides (Sarstedt). At 24 h after seeding, cells were transfected with 2 μg plasmid DNA using a 4:1 ratio of FuGENE transfection reagent (Promega) to DNA. Then, 12.5 μL of transfection mix was added to 500 μL medium per well. Protein expression levels were monitored by using a fluorescence microscope (Olympus IX51) equipped with a FITC filter and by Western blot analysis using an anti-hDAAO antibody (Davids Biotechnologie) (Sacchi et al., [2008], [2011]).
At 24, 48, and 72 h after transfection, cells were washed twice with PBS and fixed with ice-cold 4% p-formaldehyde and 4% sucrose for 10 min at room temperature. After fixation, cells were washed twice with PBS and blocked by incubation in PBS supplemented with 0.2% Triton X-100 and 4% horse serum for 30 min at room temperature. Peroxisomes were stained using rabbit polyclonal anti-PMP70 (peroxisomal membrane protein 70, Sigma), diluted 1:500 in PBS, 0.1% Triton X-100, and 4% horse serum overnight at 4°C; they were then washed twice in PBS and 1% horse serum and incubated for 1 h at room temperature (light protected) with goat anti-rabbit Dylight 550 secondary antibodies (Abcam) diluted 1:400 in PBS, 0.1% Triton X-100, and 1.5% horse serum. Cells were then extensively washed in PBS and nuclei were stained with DRAQ5™ (Thermo Scientific) and diluted 1:500 in PBS for 10 min at room temperature in the dark. Cells were washed three times with PBS and stored in PBS at 4°C until imaging.
Immunostained cells were imaged using an inverted laser scanning confocal microscope (TCS SP5, Leica Microsystems), equipped with a 63.0 ×1.25 NA plan apochromatic oil immersion objective. Confocal image stacks were acquired using the Leica TCS software with a sequential mode to avoid interference between each channel and without saturating any pixel. Cells in 10–15 non-magnified optical fields were analyzed for each condition (i.e., different EYFP-hDAAO expression constructs at different times after transfection). The fluorescence signal corresponding to the overexpressed EYFP-hDAAO variants was monitored by excitation at 514 nm (yellow channel); the peroxisomal and nuclear cellular compartments were imaged by excitation at 546 nm (red channel) and 647 nm (blue channel), respectively.
U87 glioblastoma cells were transiently transfected with a pEYFP-hDAAO-C3 plasmid encoding for EYFP-hDAAO chimeric proteins harboring R, E, or L at position 120 of the flavoenzyme. […] A similar amount of transfected cells (expressing EYFP-hDAAO protein) was obtained for all three constructs (Table 4). The percentage of cells showing a cytosolic, peroxisomal, and nuclear localization of the flavoenzyme was determined by comparing the yellow fluorescence signal of EYFP-hDAAO variants with those of the markers PMP-70 (for peroxisomes) and DRAQ5™ dye (for nuclei, Figure 5). The amount of cytosolic wild-type EYFP-hDAAO decreased with time after transfection (28% of the signal is cytosolic at 72 h vs. 94% at 24 h), as did the amount of nuclear signal (Table 4 and Figure 6). […]

For “Wild-type: recombinant wild-type human D-amino acid oxidase (His-tagged from E. coli; EYFP-tagged in U87 cells)”, the Specific activity [1] is listed as 12.0 U/mg protein, the “hDAAO cellular distribution: A, large cytosolic aggregates detected” value ([2]; 24 h after transfection) is listed as 18.7 % of transfected cells and the “hDAAO cellular distribution: C, cytosol” value ([2]; 24 h after transfection) is listed as 69.4 % of transfected cells. The “hDAAO cellular distribution: C/P, mixed, cytosol and peroxisomes” value (from here on “hDAAO cellular distribution: C/P, mixed”) ([2]; 24 h after transfection) was 13.4 % of transfected cells, the “hDAAO cellular distribution: N, nucleus” value ([2]; 24 h after transfection) was 14.4 % of transfected cells and the “hDAAO cellular distribution: P, peroxisomes” value (from here on “hDAAO cellular distribution: P”) ([2]; 24 h after transfection) was 17.2 % of transfected cells. The “hDAAO cellular distribution: A, large cytosolic aggregates detected” value ([2]; 48 h after transfection) was 15.4 % of transfected cells, the “hDAAO cellular distribution: C, cytosol” value ([2]; 48 h after transfection) was 21.2 % of transfected cells and the “hDAAO cellular distribution: C/P, mixed” value ([2]; 48 h after transfection) was 26.9 % of transfected cells. For the same substance, the “hDAAO cellular distribution: N, nucleus” value ([2]; 48 h after transfection) was 9.6 % of transfected cells, the “hDAAO cellular distribution: P” value ([2]; 48 h after transfection) was 51.9 % of transfected cells and the “cytosolic signal” value ([2]; 72 h after transfection) was 28%. For the same substance, the “hDAAO cellular distribution: A, large cytosolic aggregates detected” value ([2]; 72 h after transfection) was 5.6 % of transfected cells, the “hDAAO cellular distribution: C, cytosol” value ([2]; 72 h after transfection) was 10.4 % of transfected cells and the “hDAAO cellular distribution: C/P, mixed” value ([2]; 72 h after transfection) was 18.4 % of transfected cells. The “hDAAO cellular distribution: N, nucleus” value ([2]; 72 h after transfection) was 4.0 % of transfected cells and the “hDAAO cellular distribution: P” value ([2]; 72 h after transfection) was 71.2 % of transfected cells.
